Activity calls are given as the source filed them. No cut-off for these calls is given here.
Assays:
[1] = system: Mus musculus; test: (§1) Immunosuppressive effect in thioglycolate-induced hyper-inflammatory C57BL/6 wild type mouse model assessed as effect on neutrophil level in […] peritoneal cavity at 2.5 micromol/kg, iv measured after 2 hrs by flow cytometry based in vivo cell recruitment assay; assay type: functional, organism-based; conditions: dose 2.5 µmol/kg
[2] = system: Mus musculus; test: (§2) Immunosuppressive effect in thioglycolate-induced hyper-inflammatory C57BL/6 wild type mouse model assessed as reduction in macrophage/monocyte level in […] peritoneal cavity at 2.5 micromol/kg, iv administered after 24 hrs of thioglycolate injection in peritoneal cavity followed by after 2 hrs treated at 2.5 micromol/kg, ip and followed by after 6 hrs treated at 2.5 micromol/kg, ip and followed by after 15 hrs treated at 2.5 micromol/kg, ip and measured after 3 hrs by flow cytometry based in vivo cell recruitment assay; assay type: functional, organism-based; conditions: time 26.0 hrs
[3] = system: Mus musculus; test: as §1, with “PSGL-1+” for “neutrophil”, “micromol/kg,iv pre-administered 10 min followed by thioglycolate administration” for “micromol/kg, iv”, “10 min” for “2 hrs”; assay type: functional, organism-based; conditions: dose 2.5 µmol/kg, time 20.0 min
[4] = system: Mus musculus; test: (§3) Immunosuppressive effect in thioglycolate induced hyper-inflammatory C57BL/6 wild type mouse model assessed as reduction in PSGL-1 positive cell level in skin of peritoneal cavity at 2.5 micromol/kg, iv pre-administered for 10 min followed by thioglycolate administration for 10 min and further incubated with compound for 1 hr 40 min by flow cytometry based in vivo cell recruitment assay; assay type: functional, organism-based; conditions: dose 2.5 µmol/kg, time 2.0 hrs
[5] = system: Mus musculus; test: as §3, with “thioglycolate-induced” for “thioglycolate induced”, “neutrophil” for “PSGL-1 positive cell”; assay type: functional, organism-based; conditions: dose 2.5 µmol/kg, time 2.0 hrs
[6] = system: Mus musculus; test: as §2, with “CD11b+” for “macrophage/monocyte”; assay type: functional, organism-based; conditions: time 26.0 hrs
[7] = system: Mus musculus; test: as §2, with “PSGL-1+” for “macrophage/monocyte”; assay type: functional, organism-based; conditions: time 26.0 hrs
[8] = system: Mus musculus; test: as §3, with “CD11b+” for “PSGL-1 positive cell”, “micromol/kg,iv” for “micromol/kg, iv”, “cytometry” for “cytometry based”; assay type: functional, organism-based; conditions: dose 2.5 µmol/kg, time 2.0 hrs
[9] = system: Mus musculus; test: (§4) Immunosuppressive effect in thioglycolate-induced hyper-inflammatory C57BL/6 wild type mouse model assessed as effect on CD11b+ level in […] peritoneal cavity at 2.5 micromol/kg, iv pre-administered 10 min followed by thioglycolate administration measured after 10 min by flow cytometry based in vivo cell recruitment assay; assay type: functional, organism-based; conditions: dose 2.5 µmol/kg, time 20.0 min
[10] = system: Mus musculus; test: as §2, with “neutrophil” for “macrophage/monocyte”; assay type: functional, organism-based; conditions: time 26.0 hrs
[11] = system: Mus musculus; test: Immunosuppressive activity in thioglycolate induced hyper-inflammatory C57BL/6 wild type mouse model assessed as effect on neutrophil levels at 2 micromol/kg, iv pre-administered 10 min followed by thioglycolate administration measured after 10 min by flow cytometry analysis; assay type: functional, organism-based; conditions: dose 2.0 µmol/kg, time 20.0 min
[12] = system: Mus musculus; test: as §4, with “macrophage/monocytes” for “CD11b+”; assay type: functional, organism-based; conditions: dose 2.5 µmol/kg, time 20.0 min
[13] = system: Mus musculus; test: Immunosuppressive activity in thioglycolate induced hyper-inflammation in C57BL/6 wild type mouse model assessed as reduction in macrophages/monocytes levels at 2 micromol/kg, iv pre-administered for 10 min followed by thioglycolate administration for 10 min and further incubated with compound for 1 hr 40 min by flow cytometry in vivo cell recruitment assay; assay type: functional, organism-based; conditions: dose 2.0 µmol/kg, time 2.0 hrs
[14] = biological target: T1, E-selectin (Homo sapiens, UniProt P16581); test: Binding affinity to recombinant human E-selectin assessed as dissociation constant by surface plasmon resonance (SPR) analysis
T1 sequence (P16581 whole entry): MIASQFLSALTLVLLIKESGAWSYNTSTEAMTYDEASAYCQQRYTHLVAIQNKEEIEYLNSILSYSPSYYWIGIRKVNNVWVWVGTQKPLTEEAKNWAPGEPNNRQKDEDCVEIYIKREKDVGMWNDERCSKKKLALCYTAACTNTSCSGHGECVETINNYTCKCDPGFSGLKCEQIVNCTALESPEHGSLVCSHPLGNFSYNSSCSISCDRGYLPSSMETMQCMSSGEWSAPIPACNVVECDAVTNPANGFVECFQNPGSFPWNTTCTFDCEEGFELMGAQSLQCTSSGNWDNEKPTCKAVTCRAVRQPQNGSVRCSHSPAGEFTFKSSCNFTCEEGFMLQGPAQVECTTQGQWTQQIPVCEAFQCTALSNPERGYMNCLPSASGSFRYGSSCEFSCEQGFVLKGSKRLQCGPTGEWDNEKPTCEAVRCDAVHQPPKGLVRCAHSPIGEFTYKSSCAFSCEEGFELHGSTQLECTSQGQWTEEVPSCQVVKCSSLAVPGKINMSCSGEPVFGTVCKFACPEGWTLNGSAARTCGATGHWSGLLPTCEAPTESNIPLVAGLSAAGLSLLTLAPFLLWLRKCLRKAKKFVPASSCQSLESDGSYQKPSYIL

[15] = biological target: T2, P-selectin (Homo sapiens, UniProt P16109); test: Binding affinity to recombinant human P-selectin assessed as dissociation constant by surface plasmon resonance (SPR) analysis
T2 sequence (P16109 whole entry): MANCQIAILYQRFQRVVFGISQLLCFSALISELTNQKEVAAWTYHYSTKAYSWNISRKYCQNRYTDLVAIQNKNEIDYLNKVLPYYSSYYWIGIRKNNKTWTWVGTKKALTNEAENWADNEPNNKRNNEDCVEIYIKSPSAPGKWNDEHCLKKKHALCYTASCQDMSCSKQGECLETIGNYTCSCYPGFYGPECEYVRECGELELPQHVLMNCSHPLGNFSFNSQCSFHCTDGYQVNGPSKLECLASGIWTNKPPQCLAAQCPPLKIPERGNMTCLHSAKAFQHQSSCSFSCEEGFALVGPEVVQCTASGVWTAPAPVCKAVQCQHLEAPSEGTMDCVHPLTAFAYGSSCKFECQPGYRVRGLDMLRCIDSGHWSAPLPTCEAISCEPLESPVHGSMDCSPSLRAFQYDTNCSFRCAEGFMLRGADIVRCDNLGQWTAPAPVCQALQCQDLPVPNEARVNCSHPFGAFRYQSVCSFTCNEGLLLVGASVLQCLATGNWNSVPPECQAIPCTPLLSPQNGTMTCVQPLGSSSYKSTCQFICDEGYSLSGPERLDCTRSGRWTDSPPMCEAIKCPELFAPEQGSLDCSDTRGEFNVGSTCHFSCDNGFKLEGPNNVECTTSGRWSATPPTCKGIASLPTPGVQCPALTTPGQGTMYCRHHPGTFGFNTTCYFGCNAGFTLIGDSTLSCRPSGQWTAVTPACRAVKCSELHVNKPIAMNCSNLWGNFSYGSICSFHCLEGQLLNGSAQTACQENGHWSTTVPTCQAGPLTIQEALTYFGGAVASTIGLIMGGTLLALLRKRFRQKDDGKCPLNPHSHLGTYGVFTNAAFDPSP

Compound	Activity [1]	Activity [2]	Activity [3]	Activity [4]	Activity [5]	Activity [6]	Activity [7]	Activity [8]	Activity [9]	Activity [10]	Activity [11]	Activity [12]	Activity [13]	Kd [14] [nM]	Kd [15] [nM]
CC(C)OC(=O)[C@H](O[C@@H]1O[C@@H](C)[C@@H](O)[C@@H](O)[C@@H]1O)[C@@H](O[C@@H]1O[C@H](COC(=O)c2ccccc2)[C@@]2(O)CC[C@H](C(=O)O)O[C@H]2[C@H]1OC(=O)c1ccccc1)C(=O)OC(C)C	inactive														
CC(C)OC(=O)[C@H](O[C@@H]1O[C@@H](C)[C@@H](O)[C@@H](O)[C@@H]1O)[C@@H](O[C@@H]1O[C@H](COC(=O)c2ccccc2)[C@@]2(O)CC[C@@H](c3nnn[nH]3)O[C@@H]2[C@H]1OC(=O)c1ccccc1)C(=O)OC(C)C		Active	inactive	Active	Active	Active	Active	Active	inactive	Active	inactive	inactive	Active		
CC(C)OC(=O)[C@H](O[C@@H]1O[C@@H](C)[C@@H](O)[C@@H](O)[C@@H]1O)[C@@H](O[C@@H]1O[C@H](CO)[C@H](O)[C@H](O[C@H](Cc2ccccc2)C(=O)O)[C@H]1OC(=O)c1ccccc1)C(=O)OC(C)C														1000	1000
CC(C)OC(=O)[C@H](O[C@@H]1O[C@@H](C)[C@@H](O)[C@@H](O)[C@@H]1O)[C@@H](O[C@@H]1O[C@H](CO)[C@@]2(O)CC[C@@H](c3nnn[nH]3)O[C@@H]2[C@H]1OC(=O)c1ccccc1)C(=O)OC(C)C		Active	inactive		Active	Active	Active	Active	inactive	Active	inactive	inactive	Active		
CC(C)OC(=O)[C@H](O[C@@H]1O[C@@H](C)[C@@H](O)[C@@H](O)[C@@H]1O)[C@@H](O[C@@H]1O[C@H](COC(=O)c2ccccc2)[C@@]2(O)CC[C@@H](C(=O)O)O[C@H]2[C@H]1OC(=O)c1ccccc1)C(=O)OC(C)C	Active; Lowering Neutrophil Levels	Active	inactive		Active	Active	Active	Active	inactive	Active	inactive	inactive	Active		
CC(=O)N[C@@H]1[C@@H](O[C@@H]2O[C@@H](C)[C@@H](O)[C@@H](O)[C@@H]2O)[C@H](O[C@@H]2O[C@H](CO)[C@H](O)[C@H](O[C@]3(C(=O)O)C[C@H](O)[C@@H](NC(C)=O)[C@H]([C@H](O)[C@H](O)CO)O3)[C@H]2O)[C@@H](CO)O[C@H]1O	inactive														

Reference: ChEMBL document CHEMBL6153061, “Sialyl Lewisx Glycomimetics as E- and P-Selectin Antagonists Targeting Hyperinflammation” (ACS Med Chem Lett, 2025)
